Data published in paper PMC11637438, “Chickpea NCR13 disulfide cross-linking variants exhibit profound differences in antifungal activity and modes of action” (PLOS Pathogens, 2024).
Read-outs that look alike come from different tables or passages of the source. Ends that are not written are not given here. Peptide text beside a SMILES is read from it.

Test system: B. cinerea
Format: cell-based, Botrytis cinerea
Conditions: for fold reduction in antifungal activity relative to NCR13_CS: reduced peptides
Protocol: B. cinerea strain T4 was cultured in V8 medium for 3 weeks at 25°C. Fungal spores were collected by flooding the fungal growth plates with water and scraped using a sterile spreader. The spore suspension was filtered through two layers of Miracloth, followed by centrifugation at 12,000 g for 2 minutes (min) and subsequently washed twice with sterile water. Lastly, fungal spores were resuspended in Synthetic Fungal Media (SFM). The spore suspension was adjusted to the desired spore density of about 10^5 spores/mL using a hemocytometer. Fusarium virguliforme (F. virguliforme) was grown and maintained regularly in potato dextrose agar (PDA) (Difco Laboratories) medium. Two weeks old F. virguliforme plates were used to collect spores as described above for B. cinerea followed by centrifugation and washing steps. Spores were counted using a hemocytometer and adjusted to the final concentration of 10^5 spores/mL in 2X SFM media. Sclerotinia sclerotiorum obtained from the field of pennycress in Illinois was grown on PDA medium at room temperature.
The antifungal activity of NCR13 against fungal pathogens was determined using the resazurin cell viability assay, as described previously. Briefly, 45 μL of each peptide dilution (0, 0.09, 0.1875, 0.375, 0.75, 1.5, 3, and 6 μM) was added to each well of the microtiter plate containing 45 μL (~10^5 spores/mL) of spore suspension. Three biological replicates were used for each treatment and the experiments were repeated three times. Resazurin at 0.1% (w/v) was added to each well after incubation for 48 h. Images were taken at ~24 h. The Minimum Inhibitory Concentration (MIC) for each peptide denotes the lowest concentration at which the peptide halts the growth of fungus evident through a lack of color change from blue to […]. The in vitro antifungal activity of NCR13_PFVs against S. sclerotiorum was determined using a 24-well plate assay as previously described. Mycelial plugs (1 mm in diameter) cut from the growing edge of the two day-old actively growing colony were transferred from PDA media to a series of wells containing 250 μL of SFM.

[1] = B. cinerea, resazurin assay in SFM, ~10^5 spores/mL, resazurin added after 48 h, three biological replicates

Compound	Minimal Inhibitory Concentration (MIC) [1]	Minimal Inhibitory Concentration (MIC) (48 h) [µM]	other results
CC(C)[C@H](NC(=O)[C@H](CCCCN)NC(=O)[C@@H]1CCCN1C(=O)[C@H](CCCCN)NC(=O)[C@H](CCCNC(=N)N)NC(=O)[C@H](CS)NC(=O)[C@H](C)NC(=O)[C@H](Cc1ccccc1)NC(=O)[C@H](CCCCN)NC(=O)[C@@H](N)CCCCN)C(=O)N1CCC[C@H]1C(=O)N[C@@H](CCCCN)C(=O)N[C@@H](CS)C(=O)O [NCR13 active motif] (H-KKFACRKPKVPKC-OH; N-terminus and C-terminus assumed)	3 µM	–	–
CC[C@H](C)[C@H](NC(=O)[C@H](CS)NC(=O)[C@H](CCCCN)NC(=O)[C@@H]1CCCN1C(=O)[C@@H](NC(=O)[C@H](CCCCN)NC(=O)[C@@H]1CCCN1C(=O)[C@H](CCCCN)NC(=O)[C@H](CCCNC(=N)N)NC(=O)[C@H](CS)NC(=O)[C@H](C)NC(=O)[C@H](Cc1ccccc1)NC(=O)[C@H](CCCCN)NC(=O)[C@H](CCCCN)NC(=O)[C@H](CS)NC(=O)[C@H](C)NC(=O)[C@H](C)NC(=O)[C@H](C)NC(=O)[C@H](C)NC(=O)[C@H](C)NC(=O)[C@H](CS)NC(=O)[C@@H]1CCCN1C(=O)[C@H](CCCCN)NC(=O)[C@@H](N)[C@@H](C)O)C(C)C)C(=O)N[C@@H](CC(N)=O)C(=O)NCC(=O)N[C@@H](Cc1ccccc1)C(=O)N[C@@H](CS)C(=O)N[C@@H](CCCCN)C(=O)N[C@@H](CS)C(=O)N[C@H](C(=O)N[C@@H](CCCNC(=N)N)C(=O)O)C(C)C [NCR13_AlaV1] (H-TKPCAAAAACKKFACRKPKVPKCINGFCKCVR-OH; N-terminus and C-terminus assumed)	–	6	fold reduction in antifungal activity relative to NCR13_CS (B. cinerea): 2 fold
CC[C@H](C)[C@H](NC(=O)[C@H](CS)NC(=O)[C@H](CCCCN)NC(=O)[C@@H]1CCCN1C(=O)[C@@H](NC(=O)[C@H](CCCCN)NC(=O)[C@@H]1CCCN1C(=O)[C@H](CCCCN)NC(=O)[C@H](CCCNC(=N)N)NC(=O)[C@H](CS)NC(=O)[C@H](C)NC(=O)[C@H](C)NC(=O)[C@H](C)NC(=O)[C@H](C)NC(=O)[C@H](CS)NC(=O)[C@H](CC(=O)O)NC(=O)[C@H](CCCCN)NC(=O)[C@H](CC(=O)O)NC(=O)[C@H](CO)NC(=O)[C@H](CCC(N)=O)NC(=O)[C@H](CS)NC(=O)[C@@H]1CCCN1C(=O)[C@H](CCCCN)NC(=O)[C@@H](N)[C@@H](C)O)C(C)C)C(=O)N[C@@H](CC(N)=O)C(=O)NCC(=O)N[C@@H](Cc1ccccc1)C(=O)N[C@@H](CS)C(=O)N[C@@H](CCCCN)C(=O)N[C@@H](CS)C(=O)N[C@H](C(=O)N[C@@H](CCCNC(=N)N)C(=O)O)C(C)C [NCR13_AlaV2] (H-TKPCQSDKDCAAAACRKPKVPKCINGFCKCVR-OH; N-terminus and C-terminus assumed)	–	> 12	–
CC[C@H](C)[C@H](NC(=O)[C@H](CS)NC(=O)[C@H](C)NC(=O)[C@H](C)NC(=O)[C@H](C)NC(=O)[C@H](CCCCN)NC(=O)[C@@H]1CCCN1C(=O)[C@H](CCCCN)NC(=O)[C@H](CCCNC(=N)N)NC(=O)[C@H](CS)NC(=O)[C@H](C)NC(=O)[C@H](Cc1ccccc1)NC(=O)[C@H](CCCCN)NC(=O)[C@H](CCCCN)NC(=O)[C@H](CS)NC(=O)[C@H](CC(=O)O)NC(=O)[C@H](CCCCN)NC(=O)[C@H](CC(=O)O)NC(=O)[C@H](CO)NC(=O)[C@H](CCC(N)=O)NC(=O)[C@H](CS)NC(=O)[C@@H]1CCCN1C(=O)[C@H](CCCCN)NC(=O)[C@@H](N)[C@@H](C)O)C(=O)N[C@@H](CC(N)=O)C(=O)NCC(=O)N[C@@H](Cc1ccccc1)C(=O)N[C@@H](CS)C(=O)N[C@@H](CCCCN)C(=O)N[C@@H](CS)C(=O)N[C@H](C(=O)N[C@@H](CCCNC(=N)N)C(=O)O)C(C)C [NCR13_AlaV4] (H-TKPCQSDKDCKKFACRKPKAAACINGFCKCVR-OH; N-terminus and C-terminus assumed)	–	> 12	–
CC(C)[C@H](NC(=O)[C@H](CS)NC(=O)[C@H](CCCCN)NC(=O)[C@H](CS)NC(=O)[C@H](C)NC(=O)[C@H](C)NC(=O)[C@H](C)NC(=O)[C@H](C)NC(=O)[C@H](CS)NC(=O)[C@H](CCCCN)NC(=O)[C@@H]1CCCN1C(=O)[C@@H](NC(=O)[C@H](CCCCN)NC(=O)[C@@H]1CCCN1C(=O)[C@H](CCCCN)NC(=O)[C@H](CCCNC(=N)N)NC(=O)[C@H](CS)NC(=O)[C@H](C)NC(=O)[C@H](Cc1ccccc1)NC(=O)[C@H](CCCCN)NC(=O)[C@H](CCCCN)NC(=O)[C@H](CS)NC(=O)[C@H](CC(=O)O)NC(=O)[C@H](CCCCN)NC(=O)[C@H](CC(=O)O)NC(=O)[C@H](CO)NC(=O)[C@H](CCC(N)=O)NC(=O)[C@H](CS)NC(=O)[C@@H]1CCCN1C(=O)[C@H](CCCCN)NC(=O)[C@@H](N)[C@@H](C)O)C(C)C)C(=O)N[C@@H](CCCNC(=N)N)C(=O)O [NCR13_AlaV5] (H-TKPCQSDKDCKKFACRKPKVPKCAAAACKCVR-OH; N-terminus and C-terminus assumed)	–	12	fold reduction in antifungal activity relative to NCR13_CS (B. cinerea): 4 fold
CC[C@H](C)[C@H](NC(=O)[C@H](CS)NC(=O)[C@H](CCCCN)NC(=O)[C@@H]1CCCN1C(=O)[C@@H](NC(=O)[C@H](CCCCN)NC(=O)[C@@H]1CCCN1C(=O)[C@H](CCCCN)NC(=O)[C@H](CCCNC(=N)N)NC(=O)[C@H](CS)NC(=O)[C@H](C)NC(=O)[C@H](Cc1ccccc1)NC(=O)[C@H](CCCCN)NC(=O)[C@H](CCCCN)NC(=O)[C@H](CS)NC(=O)[C@H](CC(=O)O)NC(=O)[C@H](CCCCN)NC(=O)[C@H](CC(=O)O)NC(=O)[C@H](CO)NC(=O)[C@H](CCC(N)=O)NC(=O)[C@H](CS)NC(=O)[C@@H]1CCCN1C(=O)[C@H](CCCCN)NC(=O)[C@@H](N)[C@@H](C)O)C(C)C)C(=O)N[C@@H](CC(N)=O)C(=O)NCC(=O)N[C@@H](Cc1ccccc1)C(=O)N[C@@H](CS)C(=O)N[C@@H](CCCCN)C(=O)N[C@@H](CS)C(=O)N[C@H](C(=O)N[C@@H](CCCNC(=N)N)C(=O)O)C(C)C [NCR13_CS] (H-TKPCQSDKDCKKFACRKPKVPKCINGFCKCVR-OH; N-terminus and C-terminus assumed)	3 µM	–	fold decrease in antifungal activity compared to NCR13_PFV1 (B. cinerea): ~33 fold; fold decrease in antifungal activity compared to NCR13_PFV2 (B. cinerea): 2 fold
TKPSQSDKDSKKFASRKPKVPKSINGFSKSVR [NSR13]	Inactive	> 24	–
